Reference: patent publication US20100267743A1, “3-(PHENOXYPYRROLIDIN-3-YL-METHYL)HETEROARYL, 3-(PHENYLPYRROLIDIN-3-YLMETHOXY)HETEROARYL, AND 3-(HETEROARYLPYRROLIDIN-3-YLMETHOXY)HETEROARYL COMPOUNDS” (priority 2009, published 2010)

Columns and labels:
SERT = SERT (Homo sapiens, UniProt P31645); assay: hSERT radioligand binding assay (3H-citalopram); design: expressed in transfected cells; host or cells: HEK-293; conditions: hSERT membranes (HEK-293), 1.0 nM 3H-citalopram; for Ki: read-out: SERT pKi (converted)
Outline: (§1)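 Membranes came from HEK-293 cells stably expressing hSERT (0.5 μg protein) or hNET (1 μg), with 3H-citalopram or 3H-nisoxetine respectively. Incubation was 60 min at 22° C in Tris buffer with 120 mM NaCl and 5 mM KCl, pH 7.4, followed by filtration and scintillation counting. pKi was derived by Cheng-Prusoff from IC50 and saturation-derived Kd.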

NET = NET (Homo sapiens, UniProt P23975); assay: hNET radioligand binding assay (3H-nisoxetine); design: expressed in transfected cells; host or cells: HEK-293; conditions: hNET membranes (HEK-293), 1.0 nM 3H-nisoxetine; for Ki: read-out: NET pKi (converted)
Outline: as §1

Sequence of SERT (P31645 whole entry): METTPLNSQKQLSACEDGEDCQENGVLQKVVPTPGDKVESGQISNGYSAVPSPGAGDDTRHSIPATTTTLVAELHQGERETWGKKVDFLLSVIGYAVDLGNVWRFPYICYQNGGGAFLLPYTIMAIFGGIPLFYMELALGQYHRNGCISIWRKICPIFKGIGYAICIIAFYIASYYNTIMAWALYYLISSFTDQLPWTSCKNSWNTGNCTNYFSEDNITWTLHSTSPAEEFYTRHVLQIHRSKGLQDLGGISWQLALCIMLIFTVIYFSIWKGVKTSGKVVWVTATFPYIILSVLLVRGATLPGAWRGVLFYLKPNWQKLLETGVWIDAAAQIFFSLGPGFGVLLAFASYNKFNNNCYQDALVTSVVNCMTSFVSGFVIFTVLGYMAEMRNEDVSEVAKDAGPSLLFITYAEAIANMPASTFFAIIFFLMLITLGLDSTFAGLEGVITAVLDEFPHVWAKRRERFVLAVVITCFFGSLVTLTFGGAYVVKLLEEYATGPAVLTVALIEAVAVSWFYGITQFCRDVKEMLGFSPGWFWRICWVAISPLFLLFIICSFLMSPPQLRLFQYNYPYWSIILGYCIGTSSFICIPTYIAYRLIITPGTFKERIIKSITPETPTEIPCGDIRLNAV
Sequence of NET (P23975 whole entry): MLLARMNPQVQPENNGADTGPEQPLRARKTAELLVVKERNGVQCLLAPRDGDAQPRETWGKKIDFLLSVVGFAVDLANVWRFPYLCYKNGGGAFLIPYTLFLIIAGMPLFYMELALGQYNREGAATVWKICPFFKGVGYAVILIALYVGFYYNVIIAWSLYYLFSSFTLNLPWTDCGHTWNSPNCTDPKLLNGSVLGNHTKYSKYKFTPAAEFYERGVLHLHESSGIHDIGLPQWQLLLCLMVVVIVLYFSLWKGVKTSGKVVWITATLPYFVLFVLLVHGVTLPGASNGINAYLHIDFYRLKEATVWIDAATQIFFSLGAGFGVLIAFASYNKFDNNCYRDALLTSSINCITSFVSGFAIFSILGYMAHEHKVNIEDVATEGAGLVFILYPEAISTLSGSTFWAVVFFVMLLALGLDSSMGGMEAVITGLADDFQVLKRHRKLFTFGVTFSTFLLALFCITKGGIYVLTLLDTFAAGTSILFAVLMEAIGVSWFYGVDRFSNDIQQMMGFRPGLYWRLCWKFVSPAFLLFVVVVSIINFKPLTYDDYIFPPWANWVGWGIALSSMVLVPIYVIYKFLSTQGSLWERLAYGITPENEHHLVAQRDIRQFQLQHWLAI

| SMILES | SERT pKi (SERT) | NET pKi (NET) | Ki (SERT) [nM] | Ki (NET) [nM] |
| --- | --- | --- | --- | --- |
| Fc1ccc(O[C@@H](c2nccs2)[C@H]2CCNC2)cc1Cl [Example 5-30] | ≧7.0 | ≧5.0 | – | – |
| Cc1ccc(OC(c2ccccc2)C2CCNC2)cn1 (stereo not drawn) [15-28] | ≧7.0 | ≧5.0 | – | – |
| Clc1ccc(OC(c2ncco2)C2CCNC2)c(Cc2ccccc2)c1 (stereo not drawn) [6-16] | ≧7.0 | ≧7.0 | – | – |
| Cc1cc(Cl)ccc1O[C@@H](c1ncco1)[C@H]1CCNC1.O=C(O)C(F)(F)F [6-34] | ≧7.0 | ≧7.0 | – | – |
| Fc1cc(Cl)c(OC(c2nccs2)C2CCNC2)c(Cl)c1 [Example 5-10, 2-[(R)-(2,6-Dichloro-4-fluorophenoxy)-((S)-pyrrolidin-3-yl-methyl]thiazole] | – | – | ≤ 10000 | ≤ 10000 |
| CCc1cc(F)ccc1O[C@@H](c1ncco1)[C@H]1CCNC1.O=C(O)C(F)(F)F [6-30] | ≧7.0 | ≧7.0 | – | – |
| Fc1cc(F)c(OC(c2nccs2)C2CCNC2)c(F)c1.O=C(O)C(F)(F)F (mixture of isomers) [Example 5-5, 2-[((S)-Pyrrolidin-3-yl-(2,4,6-trifluorophenoxy)methyl]thiazole] | ≧7.0 | ≧7.0 | – | – |
| Fc1ccc(O[C@H](c2nccs2)[C@H]2CCNC2)c(Cl)c1 [Example 5-19, 2-[(S)-(2-Chloro-4-fluorophenoxy)-(S)-pyrrolidin-3-ylmethyl]thiazole] | – | – | ≤ 100 | ≤ 10000 |
| Fc1ccc(F)c(O[C@@H](c2nccs2)[C@H]2CCNC2)c1Cl [Example 5-15] | ≧7.0 | ≧5.0 | – | – |
| Clc1cccc(Cl)c1O[C@H](c1cccnc1)[C@H]1CCNC1 [Example 2-73, 3-[(S)-(2,6-Dichlorophenoxy)-(S)-pyrrolidin-3-yl-methyl]pyridine] | – | – | ≤ 100 | ≤ 100 |
| Clc1ccc(O[C@@H](c2ccccc2)[C@H]2CCNC2)cn1.O=C(O)C(F)(F)F [15-24] | ≧7.0 | ≧5.0 | – | – |
| Fc1ccc(OC(c2nccs2)[C@H]2CCNC2)c(Cl)c1 (stereo partly drawn) [Example 5-20, 2-[(S)-(2-Chloro-4-fluorophenoxy)-pyrrolidin-3-yl-methyl]thiazole] | – | – | ≤ 100 | ≤ 100 |
| Fc1cc(F)c(F)c(O[C@@H](c2nccs2)[C@H]2CCNC2)c1F [Example 5-3] | ≧5.0 | ≧5.0 | – | – |
| Fc1cc(Cl)cc(F)c1OC(c1ncco1)C1CCNC1 (stereo not drawn) [6-13] | ≧7.0 | ≧7.0 | – | – |
| Clc1cc(Cl)cc(O[C@H](c2cnccn2)[C@H]2CCNC2)c1 [10-10] | – | – | ≤ 100 | ≤ 10000 |
| Cc1cc(Cl)c(O[C@@H](c2ncco2)[C@H]2CCNC2)c(Cl)c1.O=C(O)C(F)(F)F [6-12] | ≧7.0 | ≧5.0 | – | – |
| Fc1cccc(C(Oc2cccc3ccccc23)C2CCNC2)c1 (stereo not drawn) [21-4] | – | – | ≤ 100 | ≤ 100 |
| COc1cc(Cl)c(F)cc1O[C@@H](c1ncco1)[C@H]1CCNC1.O=C(O)C(F)(F)F [6-40] | ≧7.0 | ≧7.0 | – | – |
| CCOc1ccccc1O[C@@H](c1ncco1)[C@H]1CCNC1.O=C(O)C(F)(F)F [6-38] | ≧5.0 | ≧7.0 | – | – |
| COc1cccnc1O[C@@H](c1ccccc1)[C@H]1CCNC1.O=C(O)C(F)(F)F [14-39] | ≧7.0 | ≧5.0 | – | – |
| CCc1cc(F)cc(F)c1O[C@@H](c1ncco1)[C@H]1CCNC1 [6-53] | ≧7.0 | ≧7.0 | – | – |
| CCCOc1ncccc1O[C@@H](c1ccccc1)[C@H]1CCNC1.O=C(O)C(F)(F)F [15-19] | ≧7.0 | ≧7.0 | – | – |
| Cc1cc(Cl)ccc1O[C@@H](c1cncnc1)[C@H]1CCNC1.O=C(O)C(F)(F)F [12-3] | ≧7.0 | ≧7.0 | – | – |
| Fc1cc(F)c(OC(c2nccs2)C2CCNC2)c(F)c1 [Example 5-7, 2-[((S)-((S)-Pyrrolidin-3-yl-(2,4,6-trifluorophenoxy)methyl]thiazole] | – | – | ≤ 100 | ≤ 100 |
